From patent US10220051B2, “Combination of DNA repair inhibition with bendamustine or gemcitabine in the treatment of cancer” (Institute for Cancer Research, priority 2012, dated 2019) come the findings set out here.

Entries after “also recorded” stand apart in the source; their conditions may differ.

Common to all, as to type: cell-based
Assay [1] deals with Hela cells. In words: Immunofluorescence of DNA damage foci (γ-H2AX, 53BP1, RPA). The procedure: (§1) Immunofluorescence. Cells were grown on coverslips, treated with the indicated drugs, fixed and stained. To detect DNA damage induction and repair, antibodies against 53BP1 (Bethyl) and γ-H2AX (Upstate) were used with Alexa Fluor-conjugated secondary antibodies (Invitrogen). All cells were counter-stained with DAPI (Molecular probes). Images were captured using a 40× or 100× objective mounted on an inverted microscope (Eclipse TE2000S; Nikon) with a CCD camera (Photometrics Cascade 512F; Roper Scientific) powered by NIS Elements AR (version 3.10) software (Nikon). For quantitative analysis, individual nuclei were identified using DAPI staining and used to define region of interests (ROI), which were then transposed onto other channels. The sum intensity per nuclei from a minimum of 50 nuclei was averaged±SEM.

In assay [2] the test system is PANC1, BXPC3, MCF-7, MDA-MB-435, OVCAR 5 and 10 cells. In words: Cell cycle profile by FACS, panel of cancer cell lines. Particulars: 24 h. As to the method: (§2) DNA content analysis via flow cytometry. Following indicated drug treatments, cells were fixed with 70% ethanol. For analysis, cells were stained with propidium iodide, RNase A and sodium citrate. Cells were incubated at 37° C. for 30 minutes before being analyzed using a Becton Dickinson single laser three-fluorescence FACScan flow analyzer and Cell Quest software (Becton Dickinson). DNA content was acquired from 10,000 events and FlowJo software was used to process the data.
In general terms: In flow cytometry, cells or beads pass a laser one at a time.

Assay [3] has as its system Hela cells. In words: Chk1 phosphorylation (Ser-345) in lysates. As to the method:
Hela cells were treated for 24 or 48 h continuous treatment or of either 50 or 200 μM BDM or 24 h followed by 24 h in the absence of drugs. […] Quantification of the average fluorescence per nucleus is shown on the right. For γ-H2AX: *P=8.9×10^−28 vs. untreated 24 h; **P=2.1×10^−31 vs. untreated 24 h; †P=5.2×10^−45 vs. untreated 48 h. For 53BP1: *P=4.3×10^−20 vs. untreated 24 h; **P=4.2×10^−41 vs. untreated 24 h; †P=2.0×10^−52 vs. untreated 48 h. For RPA: *P=2.5×10^−16 vs. untreated 24 h; **P=2.8×10^−52 vs. untreated 24 h; †P=3.3×10-^58 vs. untreated 48 h. […] Total Chk1 and alpha tubulin were used to determine loading.

Assay [4] concerns Hela cells. In words: Clonogenic assay, Hela. Particulars: for colony formation relative to control (100%): washout, ~10 days. As to the method:
Clonogenic assay. Hela cells were seeded into 6 well plates at a density of 1000 cells per well. Cells were treated for 24 h. Cells were then treated with and without UCN-01 (100 nM) for 3 h. All drugs were washed out and cells were left to grow for approximately 10 days. Cells were fixed using Acetic acid:methanol:H2O, (10:10:80), dried and stained with 0.4% crystal violet in 20% ethanol. Qualitative images of representative results are presented. For quantification, colonies were solubilized (1% acetic acid, 30% ethanol) and absorbance values at 595 nm were read. Values are expressed as a percentage relative to untreated cells, with untreated cells set to 100%±SD. Experiments were conducted in triplicate, three independent times. Student's two-tailed unpaired t test was conducted for statistics.

Assay [5] deals with U2932 B cell lymphoma cells. Description: Cell cycle profile by FACS, U2932. As to the method:
as §2

Assay [6] deals with Hela cells. Description: Cell viability MTS assay, Hela. Particulars: for cell viability, BDM alone: 3.125-200 μM, 48 h continuous. The procedure:
(§3) Cell viability and apoptosis assays. Hela cells were seeded into 96 well plates at a density of 1500 cells per well. Cells were treated with BDM (3.125-200 μM) for 24 h. After this time cells were additionally treated either with UCN-01 (100 nM), Chk2 inhibitor (100 nM) or Gö6976 (200 nM) for an additional 24 h. MTS reagent (CellTiter 96® AQueous Proliferation Assay, Promega) was added to each well for 4 h before the absorbance values at 490 nm was read. Experiments were conducted in triplicate, 3 independent times. Data presented are the average absorbance values, relative to control±SD. For apoptosis determination, cells seeded and treated as stated above were stained with Guava Nexin Reagent® (Millipore). Analysis was conducted using the Easycyte module and Cytosoft Software® (Millipore). Experiments were conducted 3 independent times, collecting 2000 events each time. Data shown is the average±SD.
For orientation: Tetrazolium dyes change colour on reduction, which living cells bring about.

For assay [7], the system named is Hela cells. Description: EdU incorporation (DNA synthesis). The following applies: EdU 10 μM, 12 h. The procedure: EdU incorporation. Hela cells were treated with nocodazole for 14 h after which time mitotic cells were collected by mechanical shake-off. Cells were washed twice with medium and re-plated. BDM and EdU (10 μM) (Click-IT™ EdU imaging kit, Invitrogen) were added 2 h later, when the cells were fully adherent and still in G1, and incubated for an additional 12 h. Cells were fixed and stained according to the manufacturer's protocol. Quantification of EdU incorporation was performed as described for antibody detection.

Assay [8] has as its system Hela cells stably expressing GFP:histone H2B. Description: Time-lapse video microscopy of mitosis. As to the method:
Time-lapse video microscopy. Hela cells stably expressing GFP:histone H2B were seeded into 6 well plates and synchronized in S phase using thymidine (2 mM). […] Where appropriate, UCN-01 (100 nM) was added to wells before being supplemented with HEPES (25 mM), layered with mineral oil (Sigma) and placed into a housing chamber which maintained the temperature at 37° C. Using a Nikon TE2000 microscope (Nikon) controlled by MetaMorph software (Molecular Devices), brightfield and fluorescent images were captured every 5 minutes for up to 48 h. Individual movies were analyzed manually and a minimum of 100 cells per treatment scored for the indicated measurements. For montages, selected frames representing different cell morphologies are presented.

Assay [9] has as its system mouse embryonic fibroblasts (WT and TDG−/−). In words: γ-H2AX immunofluorescence in WT and TDG−/− MEFs. As to the method: as §1
In assay [10] the test system is Hela cells. In words: Cell cycle profile by FACS (DNA content), Hela. The procedure: as §2
Assay [11] relates to Hela cells. Description: Apoptosis assay (Guava Nexin Reagent). The following applies: BDM 200 μM followed by Chk1 inhibitor; p<0.01 vs. control. As to the method: as §3
The test system of assay [12] is SK28 cells. In words: SK28 clonogenic assay. Particulars: SK28, concentration-dependent, quadruplicate. The procedure: (§4) Tests were conducted in quadruplicate.
Assay [13] relates to SK28 cells. Description: SK28 cell viability (MTS assay). Particulars: SK28, concentration-dependent, quadruplicate. As to the method:
as §4

With `Cn1c(CCCC(=O)O)nc2cc(N(CCCl)CCCl)ccc21` [BDM, Bendamustine], the “γ-H2AX, RPA and 53BP1 foci” value in assay [1] (50 μM BDM 24 h, then 24 h after washout) was “reduced to levels comparable to untreated cells”; in assay [1] (50 μM BDM, 24 h), “accumulated γ-H2AX, RPA and 53BP1 foci”; in [1] (200 μM BDM 24 h, after drug removal), “foci persisted after drug was removed”; in assay [1] (200 μM BDM, 24 h), “an increase in γ-H2AX, RPA and 53BP1”. Further, in assay [1] (50 μM BDM, 48 h continuous), the “γ-H2AX, RPA and 53BP1 staining” value is “reduced to control cells”. Moreover, in assay [1] (200 μM BDM, 48 h continuous), the DNA damage foci entry is given as “not reduced”. Besides, the “53BP1, RPA and γ-H2AX nuclear foci” value in assay [1] (dose dependence) is “increased in a dose-dependent manner”. The cell cycle arrest result is “G2 arrest” in [2] (50 μM BDM); “S phase arrest” in assay [2] (200 μM BDM); “induced a G2 arrest” in assay [5] (10 μM BDM); “S phase arrest” in assay [5] (25 μM BDM); “induced an S phase arrest” in assay [5] (50 μM BDM); “maintained after drug washout, or 48 h continuous treatment” in assay [10] (200 μM BDM, after washout or 48 h continuous). The “Chk1 phosphorylation (Ser-345)” value in [3] (50 μM BDM, 48 h) was “no signal was observed”; in assay [3] (200 μM BDM, 48 h) it was “detectable pChk1 was still present”; in assay [3] (24 h treatment), “dose-dependently phosphorylated”. Besides, the results for the “colony formation relative to control (100%)” value in [4] (50 μM BDM 24 h) and in [4] (200 μM BDM 24 h) were 87.8±11.2% and 3.5±1.3%, respectively. Besides, the “reduction in clonogenic survival” value in assay [4] (200 uM BDM) was 95%. For the same compound, the “cell viability, BDM alone” value in assay [6] is “did not reduce cell viability as compared to control treatment”; in assay [6] (listed as bendamustine), “not particularly effective at killing Hela cells”. In addition, the “EdU incorporation relative to untreated (100%)” value in assay [7] (50 μM BDM) was found to be 98.0±4.1%; in [7] (200 μM BDM), 64.7±2.6%. The “fate of cells forced into mitosis” value was “progress through mitosis relatively normally” in [8] (50 μM BDM + Chk1 inhibition); “majority failing to exit and instead die in mitosis” in assay [8] (200 μM BDM + Chk1 inhibition). Moreover, the “percentage of cells entering mitosis” value in assay [8] (50 μM BDM, over 24 h) is “caused a reduction in the percentage of cells entering mitosis”. Besides, the mitotic index result in assay [8] (200 μM BDM) is reported as “reduced mitotic index”. The mitotic figures entry in assay [8] (200 μM BDM + Chk1 inhibition) is given as “highly abnormal”. Moreover, the “γ-H2AX staining, TDG−/− MEFs versus wildtype MEFs” value in [9] (10 μM BDM, 24 h) was “increased γ-H2AX staining”. Further, the “repair of DNA damage, TDG−/− MEFs versus wildtype MEFs” value in assay [9] (48 h continuous treatment) is on record as “reduced ability to repair the DNA damage”. In addition, the cell cycle profile result in assay [10] (50 μM BDM 24 h, then another 24 h with or without BDM) was “displayed a normal cell cycle profile”; in [10] (Hela synchronized in G1, 200 μM BDM, 24 h), “arrested in S phase”; in assay [10] (Hela synchronized in G1, 25-100 μM BDM, 24 h) it was “accumulated as 4N DNA content indicating a G2/M delay”.
Turning to `Cn1c2ccccc2c2c3c(c4c5ccccc5n(CCC#N)c4c21)CNC3=O` [Gö6976], the “percentage of apoptotic cells” value in [11] was “exhibited an increase in the percentage of apoptotic cells”.
With `CON` [MX, methoxyamine], the “γ-H2AX foci, combination with BDM” value in assay [1] (50 μM BDM + methoxyamine 6 mM, 48 h) is reported as “significantly higher levels of γ-H2AX foci than BDM alone”.
In the case of `O=c1cc(N2CCOCC2)oc2c(-c3cccc4c3sc3ccccc34)cccc12` [NU7441], the “repair of BDM-induced damage (γ-H2AX)” value in assay [1] (50 μM BDM + NU7441 10 μM, 48 h) is recorded as “did not block repair of BDM-induced damage”.
Regarding `C=CC1=C(C(=O)O)N2C(=O)[C@@H](NC(=O)/C(=N\OCC(=O)O)c3csc(N)n3)[C@H]2SC1` [cefixime, (6R,7R)-7-{[2-(2-amino-1,3-thiazol-4-yl)-2-(carboxymethoxyimino)acetyl]amino}-3-ethenyl-8-oxo-5-thia-1-azabicyclo[4.2.0]oct-2-ene-2-carboxylic acid], in assay [12], the “clonogenic capacity / colony-forming ability” value is “reduce cell viability and clonogenic capacity; also recorded: reduction of clonogenic capacity”. The cell viability entry in [13] is “reduce cell viability”.
Take `NC(=O)c1ccc2nc(-c3ccc(Oc4ccc(Cl)cc4)cc3)[nH]c2c1` [pharmacological inhibitor of Chk2]: the “sensitization to killing by BDM” value in assay [6] (any BDM concentration (3.125-200 μM), Chk2 inhibitor 100 nM) is “did not sensitize to killing by any concentration of BDM”.
